IC50 data for 31 compounds are collected here from PubChem BioAssay AID602215 (Sanford-Burnham Center for Chemical Genomics, 2012).

SMILES strings stand for the structures. Activity calls are given as the source filed them.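 Rule for the calls: active = IC50 of 20 µM or lower; inactive = the rest.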

This test concerns HL-1 cardiomyocytes, H2O2 injury, ATP luminescence, 2 h. Briefly: protection of HL-1 cardiomyocytes from peroxide injury, dose response, cell-based, ATP luminescence (AID 602215).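 Note: potency is for protection so actives raise ATP signal against peroxide damage.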
On to `Cc1ccc(NC(=O)c2nc[nH]c2C(=O)NCCCNC(=O)c2[nH]cnc2C(=O)Nc2ccc(C)cc2)cc1`, for which the IC50 (usually the concentration needed to halve the response being measured) is > 79 µM (inactive).
The result for `COc1ccc(-n2cc(-c3ccccc3)c3c(N4CCOCC4)ncnc32)cc1` reads > 79 µM (inactive); that for `O=C(CN(c1ccc2c(c1)OCCO2)S(=O)(=O)c1ccccc1)Nc1ccc2c(c1)OCO2`, > 79 µM (inactive); that for `Nc1c(C(=O)N/N=C/c2cccnc2)oc2nc(-c3ccccc3)cc(-c3ccco3)c12`, > 79 µM (inactive).
`CCOC(=O)C(Cc1ccc(NC(=O)/C(=C/c2ccc(OC(C)=O)cc2)NC(C)=O)cc1)N1C(=O)c2ccccc2C1=O` (stereo unspecified): the IC50 is 32.5 µM (inactive).
Under `CCOc1ccccc1Nc1nnc(SCc2nnc(-c3cc(OC)c(OC)c(OC)c3)o2)s1` stands 10 µM; under `O=C(CNC(=O)c1nc[nH]c1C(=O)NCC(=O)OCc1ccccc1)OCc1ccccc1`, > 79 µM (inactive).
In the case of `Cc1nn(-c2ccccc2)c(N2CCCC2)c1/C=N/NC(=O)c1cc(-c2ccccn2)nc2ccccc12`, the IC50 is > 79 µM (inactive).
As to `CCOc1ccc(C(C(=O)NC2CCCC2)N(C(=O)c2snc(C(N)=O)c2N)c2cccc(O)c2)cc1` (stereo unspecified), the IC50 is 4.32 µM.
Take `CCOC(=O)c1c(C)[nH]c(C)c1C(=O)COc1ncnc2cc([N+](=O)[O-])ccc12`: the IC50 is > 79 µM (inactive).
As for `Cc1ccc(C(C(=O)NCc2ccccc2)N(Cc2ccco2)C(=O)c2snc(C(N)=O)c2N)o1` (stereo unspecified), the IC50 was > 79 µM (inactive).
For `CNC(=O)COC(=O)/C=C/c1cn(-c2ccccc2)nc1-c1ccc(C)o1`, the IC50 is 37.1 µM (inactive).
For the compound `CC(=O)c1ccc(-c2cnc3c(NC=O)cc(-c4ccc(C(=O)NC5CC5)cc4)cn23)cc1`, the IC50 is > 79 µM (inactive).
Take `O=C(Nc1cccc(NC(=O)c2ccc([N+](=O)[O-])o2)c1)c1ccco1`: the IC50 is > 79 µM (inactive).
With `COc1cc(OC)cc(-c2cc3nc(C)c(CCC(=O)Nc4nc(C)cs4)c(C)n3n2)c1`, the IC50 was > 79 µM (inactive).
The result for `O=C(CNC(=O)c1[nH]cnc1C(=O)NC(c1ccccc1)c1ccccc1)OCc1ccccc1` reads 69.7 µM (inactive).
The result for `Cn1c(=O)c2[nH]c(NN=Cc3ccc(Br)cc3)nc2n(C)c1=O` reads > 79 µM (inactive); that for `Cc1cc(N)n(-c2nc(-c3cccnc3)nc3ccccc23)n1`, > 79 µM (inactive); that for `Cc1[nH]c2ccccc2c1/C=N/NC(=O)c1cc(-c2ccccc2)n[nH]1`, > 79 µM (inactive).
Regarding `COc1cccc(-c2cnc3c(NC=O)cc(-c4ccc(O)c(OC)c4)cn23)c1`, the IC50 is > 79 µM (inactive).
The result for `COc1ccc(-c2cc3nc(-c4ccccc4)cc(N4CCN(C(C)=O)CC4)n3n2)cc1` reads 1.59 µM; that for `O=CNc1cc(-c2ccc(C(=O)NC3CC3)cc2)cn2c(-c3ccccc3)cnc12`, > 79 µM (inactive).
As to `COc1cc(-c2cc(C(=O)NCc3ccco3)c3ccccc3n2)cc(OC)c1OC`, the IC50 was 23.5 µM (inactive).
Turning to `CCOc1ccc(C(C(=O)NCC2CCCO2)N(C(=O)c2snc(C(N)=O)c2N)c2ccccc2F)cc1` (stereo unspecified), the IC50 was 10.4 µM.
For `CCN(CC)C(=O)c1[nH]cnc1C(=O)NCC(=O)OCc1ccccc1`, the IC50 was > 79 µM (inactive).
For `COc1cccc(Nc2nc3ccccc3n3cnnc23)c1`, the IC50 is > 79 µM (inactive).
On to `O=C(c1cc(=O)[nH]c2ccccc12)N1CCN(S(=O)(=O)c2ccc(Cl)cc2)CC1`, for which the IC50 is > 79 µM (inactive).
As for `COc1nc(N/N=C/c2cc3c(cc2Br)OCO3)nc(N2CCOCC2)n1`, the IC50 was > 79 µM (inactive).
As for `COc1cc(/C=N/NC(=O)c2ccccc2)ccc1OS(=O)(=O)c1ccccc1`, the IC50 is > 79 µM (inactive).
In the case of `NC(=O)c1nsc(C(=O)N(c2ccccc2)C(C(=O)NC2CCCC2)c2ccc3ncccc3c2)c1N` (stereo unspecified), the half-inhibitory concentration (IC50) is 5.51 µM.
As for `COc1ccc(OC)c(/C=N/NC(=O)c2cc3c(OC)c(OC)ccc3[nH]2)c1`, the IC50 is 1.82 µM.
